The values that follow come from patent US20240350475A1, “TR[…] CARD[…] BY SARS-COV-2 SPIKE PROTEIN UNDER OBESITY” (priority 2023, published 2024).

Entries after “also recorded” stand apart in the source; their conditions may differ.

One assay concerns HEK_Spike cells. As to the kind of experiment: Palmitic acid (PA)-induced lipotoxicity assay in Spike cells, with or without inhibitors (PI/Hoechst cell viability). The format is cell-based, Human. Conditions: for PA-induced Spike protein-exaggerated lipotoxicity (necrosis, cell viability): Spike cells, then 750 M PA 24 h, DMEM 5% FBS. The protocol:
(§1) The HEK293, HEK_pcDNA, and HEK_Spike cells were cultured in a 96-well plate and reached to 80% confluence on the next day before treatment. The cells were kept in DMEM medium with 5% FBS during the entire treatment procedure. The cells were treated with PA (free BSA) in various concentrations from 250 to 1000 M for 24, 48, or 72 h.
(§2) For treatment control groups, the cells were treated by the same concentrations of BSA in parallel. For the inhibitory assay, the cells were pre-incubated by autophagic inhibitors (125 M trigonelline (TRG), or 10 M Wortmannin), or a ferropotosis inhibitor (ferrostatin, 2 M), or an […] (necrostatin-1, 10 M) in DMEM medium with 5% FBS for 2 h, followed by 750 M PA treatment for 24 h. The cells were then co-stained by Propidium Iodide (PI) and Hoechst 33342 NucBlue Live Cell Stain dye (ThermoFisher) to show the dead and live cells. The dyes were excited at 535 nm and 405 nm, respectively. TRG may be provided over a range of concentration such as 50 to 300 M, 60 to 290, 70 to 280, 80 to 270, 90 to 260, 100 to 250, 110 to 240, 120 to 230, 130 to 220, 140 to 210, 150 to 200, 160 to 190, 170 to 180, as well as sub ranges such as from 100M to 200 M, 125M to 175 M, etc., also include individual concentrations, such as 125M, 150 M, 175M, etc. Wortmannin may be provided over a range of concentrations from 5 to 100, 10 to 90, 15 to 80, 20 to 70, 25 to 60, 30 to 50 M, etc., including subranges and individual concentrations within these ranges.
Images were acquired and cell viability analyses were performed using an ImagXpress Pico Automated system.

Assay [1] relates to HEK293 and HEK_pcDNA cells. In words: Palmitic acid (PA)-induced lipotoxicity assay in control cells. The note with it: PA overload; HEK293 (mock) and pcDNA cells; DMEM 5% FBS. The format is cell-based, Human. The protocol: as §1
as §2, with “Wortmannin may be provided over a range of concentrations from 5 to 100, 10 to 90, 15 to 80, 20 to 70, 25 to 60, 30 to 50 M, etc., including subranges and individual concentrations within these ranges.” left out

Assay [2] has as its system Human dermal microvascular ECs (hDMVECs). It counts as cell-based.
Assay [3] deals with H9C2 cells.
Assay [4] relates to H9C2 cells. In words: Spike-exosome induced mitochondrial morphology change in H9C2 cells (MitoTracker, confocal). The format is cell-based. The note with it: spike-exo 150 μg exosomal proteins in 1 ml medium plus TRG 125 μM, 5 days.

On to `CCOC(=O)c1ccc(NC2CCCCC2)c(N)c1` [ferrostatin], for which the “PA-induced Spike protein-exaggerated lipotoxicity (necrosis, cell viability)” value in the assay on HEK_Spike cells (pre-incubated with ferrostatin 2 M 2 h) is recorded as “significantly mitigated”; in the assay on HEK_Spike cells (pre-incubated with ferrostatin 2 M 2 h, listed as ferrostatin 1), “can be suppressed”.

For `CCCCCCCCCCCCCCCC(=O)O` [PA, Palmitic acid], the “PA-induced cell death (lipotoxicity)” value in assay [1] is “induced cell death”; in the assay with HEK_Spike cells (Spike cells versus mock and pcDNA cells, PA 750 or 1000 M, 24 to 72 h), “significantly augmented”. Moreover, the “effect of PA on the Spike cells” value in the assay with HEK_Spike cells (500 M and 250 M PA, after 72 h treatment) is reported as “modest or mild effect”.

Turning to `C[n+]1cccc(C(=O)[O-])c1` [TRG, Trigonelline], in assay [2], the “cellular ROS levels” value is “attenuated”, the “density of mitochondria decreased by Spike-EVs plus LDL-c” value is given as “could restore” and the “diameter of mitochondria decreased by Spike-EVs plus LDL-c” value was “could restore”. For the same molecule, the “PA-induced Spike protein-exaggerated lipotoxicity (necrosis, cell viability)” value in the assay with HEK_Spike cells (pre-incubated with 125 M TRG 2 h) was “can attenuate; also recorded: can be suppressed; also recorded: significantly mitigated”. Moreover, the “PA-induced Spike protein-exaggerated lipotoxicity (necrosis, cell viability)” value in the assay with HEK_Spike cells (pre-incubated with 125 M TRG 2 h, listed as trigonelline) is listed as “could be attenuated”. Besides, in the assay with H9C2 cells [3], the “PA-induced Spike protein-exaggerated lipotoxicity (cell viability)” value is given as “could be reversed”. Besides, in the assay with H9C2 cells [4], the “spike-exo induced mitochondrial fusion (mitochondrial morphology)” value is “can reverse”.
